Results reported in article PMC5522529, “Mechanisms of Paradoxical Activation of AMPK by the Kinase Inhibitors SU6656 and Sorafenib” (Cell Chemical Biology, 2017).

Key:
AMPK = AMPK activity and Thr172 phosphorylation in HEK293 cells; type: cell-based, human; details: 1 hr
Description: Figure 1 SU6656 Activates AMPK but Not AMPK-Related Kinases (A) HEK293 cells were incubated with the indicated concentrations of SU6656 or berberine (300 μM) for 1 hr; total AMPK activity was assayed in immunoprecipitates (top; mean ± SEM, n = 4), and phosphorylation of AMPK (Thr172), ACC (Ser80), and Raptor (Ser792) analyzed by western blotting (bottom; n = 2). (B) HEK293 cells were incubated with 100 μM SU6656 (1 hr), AMPK complexes containing α1, α2, β1, and β2 immunoprecipitated using isoform-specific antibodies, and AMPK activity measured (mean ± SEM, n = 4). (C) HeLa cells stably expressing LKB1 ([Fogarty et al., 2010]) were incubated with 100 μM SU6656 for 1 hr, AMPK or individual ARKs immunoprecipitated, and kinase assays carried out (antibodies that distinguish MARK2/MARK3 were not available, so they were assayed together). Results are means ± SEM (n = 2). In all panels, asterisks indicate significant differences from controls without SU6656. *p < 0.05, **p < 0.01, ****p < 0.0001. […]
Endogenous AMPK was immunoprecipitated using the specified antibodies (for total AMPK, an equal mixture of anti-α1 and –α2 antibodies) and assayed at 200 μM ATP ([Hardie et al., 2000], [Towler et al., 2008]) using the AMARA peptide ([Dale et al., 1995]) as substrate, except for assays of allosteric activation by AMP (Figure 5A) where the SAMS peptide was used as substrate with 2 mM ATP ([Gowans et al., 2013]). The AMPK-related kinases SIK1, SIK2, SIK3, SNARK, MARK2/3 and MARK4 were immunoprecipitated and assayed as previously described ([Lizcano et al., 2004]) in lysates of Hela cells stably expressing LKB1 ([Fogarty et al., 2010]). LKB1 was assayed using the LKBtide peptide as substrate ([Sakamoto et al., 2004]).

HEK293 cells = assay: Cellular AMP:ATP and ADP:ATP ratios; type: cell-based, human; details: 1 hr
Description: (B) WT or RG cells were treated as in (A) and nucleotides extracted for analysis (mean ± SD, n = 3). […] (E) (See also Figure S2) Time courses of cellular oxygen uptake before and after addition of the indicated concentrations of sorafenib (SO, μM), SU6656 (100 μM) or phenformin (PHEN, 10 mM) (mean ± SEM, n = 4). (F) Effect of various concentrations of sorafenib or phenformin (10 mM) on activation (top, mean ± SEM, n = 3) or phosphorylation (bottom) of AMPK in cells expressing wild-type AMPK-γ2 (WT) or the R531G mutant AMPK-γ2 (RG). In all panels, asterisks show significant differences from DMSO controls (ns, not significant). In (B), daggers (†) show significant differences between results in WT and RG cells. *p < 0.05, **p < 0.01, ***p < 0.001, ****p < 0.0001, ^††††p < 0.0001.
Cells were incubated for 60 min and AMPK activity measured; results in the top panel are means ± SEM (n = 8), with significant differences from the DMSO control indicated (ns, not significant). The bottom panels show western blots from the same experiment (n = 2). (B) Analysis of AMP:ATP and ADP:ATP ratios from a parallel experiment to that in (A). Results are means ± SEM (n = 3), with significant differences from the DMSO control indicated. *p < 0.05, **p < 0.01, ****p < 0.0001.
The levels of AMP, ADP and ATP were measured using a TSQ Quantiva interfaced with Ultimate 3000 Liquid Chromatography system (ThermoScientific), equipped with a porous graphitic carbon column (HyperCarb 30x1mm ID 3 μm; Part No: C-35003-031030, Thermo-Scientific). Mobile phase buffer A consisted of 0.3% (v/v) formic acid adjusted to pH 9 with ammonia prior to a 1:10 dilution. Mobile phase buffer B was 80% (v/v) acetonitrile. The column was maintained at a controlled temperature of 30°C and was equilibrated with 10% buffer B for 5 minutes at a constant flow rate of 0.06 mL/min. Aliquots of 1 μL of each sample were loaded onto the column and compounds eluted with a linear gradient of 10%-60% buffer B over 9 min. Buffer B was then increased to 100% within 1 min, and the column washed for 5 min with 100% Buffer B. Eluents were sprayed into the TSQ Quantiva using Ion Max NG ion source with ion transfer tube temperature set to 350°C and vaporizer temperature 125°C. The TSQ Quantiva was run in negative mode with a spray voltage of 2600, sheath gas 40 and Aux gas 10. Levels of ATP, ADP and AMP were measured using multiple reactions monitoring mode (MRM) with optimised collision energies and radio frequencies previously determined by infusing pure compounds. Three transitions were used to monitor each of the three compounds, ATP (505.92>158.98, 505.92>408.12 and 505.92>426.12), ADP (426.98>158.98, 426.98>328.78 and 426.98>409.09) and AMP (345.96>134.20, 345.96>151.27 and 345.96>211.12).

AMPK-α1 AA mutant = biological target: T1, AMPK-α1 AA mutant (Homo sapiens, UniProt Q13131, K40A/K42A); assay: AMPK activity of FLAG-tagged AMPK-α1 K40A/K42A (AA) mutant expressed in HEK293 cells; type: cell-based
T1 construct: Plasmid encoding full-length human AMPK-α1; expressed in transfected cells; host or cells: HEK293
T1 sequence (Q13131 whole entry K40A/K42A): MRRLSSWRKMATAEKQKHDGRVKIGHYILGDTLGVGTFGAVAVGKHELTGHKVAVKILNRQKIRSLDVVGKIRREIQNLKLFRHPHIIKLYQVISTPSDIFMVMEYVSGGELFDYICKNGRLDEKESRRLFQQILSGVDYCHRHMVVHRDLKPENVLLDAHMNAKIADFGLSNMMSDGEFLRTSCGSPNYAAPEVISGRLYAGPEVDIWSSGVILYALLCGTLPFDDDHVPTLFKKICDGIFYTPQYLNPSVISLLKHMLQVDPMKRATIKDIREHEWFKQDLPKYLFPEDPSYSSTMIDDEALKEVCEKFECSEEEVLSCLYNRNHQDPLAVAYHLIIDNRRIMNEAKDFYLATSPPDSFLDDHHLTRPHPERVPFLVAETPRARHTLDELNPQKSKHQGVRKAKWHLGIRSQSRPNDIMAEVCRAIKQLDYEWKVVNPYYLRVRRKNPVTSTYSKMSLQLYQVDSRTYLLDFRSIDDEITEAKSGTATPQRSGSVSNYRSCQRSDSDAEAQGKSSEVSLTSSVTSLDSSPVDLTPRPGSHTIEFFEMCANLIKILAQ
T1 sequence (P54619 whole entry partner): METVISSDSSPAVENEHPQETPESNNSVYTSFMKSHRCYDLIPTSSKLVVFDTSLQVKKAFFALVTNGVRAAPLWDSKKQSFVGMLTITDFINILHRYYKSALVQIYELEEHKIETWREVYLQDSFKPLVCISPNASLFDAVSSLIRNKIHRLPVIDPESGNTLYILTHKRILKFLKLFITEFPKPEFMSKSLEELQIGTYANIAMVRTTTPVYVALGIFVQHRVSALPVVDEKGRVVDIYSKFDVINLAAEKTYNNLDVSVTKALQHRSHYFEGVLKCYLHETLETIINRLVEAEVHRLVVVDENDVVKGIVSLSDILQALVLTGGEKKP
From the text: (B) Western blotting of the same preparations as in (A). […] (D) Allosteric activation of WT and mutant α1β1γ1 complexes by MT 63-78, curve fitting as for (C). […] (E) Allosteric activation of WT and mutant α1β1γ1 complexes by AMP. Data were fitted to the equation for activation/inactivation by AMP ([Gowans et al., 2013]). […] (F) Activation of WT and AA mutant by various AMPK activators in HEK293 cells. […] FLAG-tagged complexes were isolated by immunoprecipitation and AMPK activity determined (mean ± SEM, n = 2).
We next expressed the FLAG-tagged WT or AA mutant of AMPK-α1 by transient transfection in HEK293 cells, treated with various agents, and measured AMPK activity in anti-FLAG immunoprecipitates. In Figure 4F, the results are expressed as absolute activities and are accompanied by blots showing Thr172 phosphorylation.

## CN(C)S(=O)(=O)c1ccc2c(c1)/C(=C/c1cc3c([nH]1)CCCC3)C(=O)N2 [SU6656]
AMPK; 100 μM, isoform-specific antibodies
  activation of AMPK complexes by subunit isoform: activate AMPK complexes containing the α1, α2, β1, and β2 subunit isoforms
AMPK
  AMPK activity / Thr172 phosphorylation: caused activation of AMPK
HEK293 cells
  cellular AMP:ATP and ADP:ATP ratios: no significant effects
AMPK-α1 AA mutant; AA mutant FLAG-α1, 100 μM, relative to DMSO control
  increase in activity and Thr172 phosphorylation: 3 fold

## COc1ccc2cc3[n+](cc2c1OC)CCc1cc2c(cc1-3)OCO2 [berberine]
AMPK
  AMPK activity / Thr172 phosphorylation: much smaller degree of AMPK activation
HEK293 cells
  cellular AMP:ATP and ADP:ATP ratios: robustly increased
AMPK-α1 AA mutant; AA mutant FLAG-α1, same concentrations, 1 hr
  effect of AA mutation on AMPK activation: abolished

## CNC(=O)c1cc(Oc2ccc(NC(=O)Nc3ccc(Cl)c(C(F)(F)F)c3)cc2)ccn1 [sorafenib]
AMPK
  AMPK activity / Thr172 phosphorylation: activated AMPK
HEK293 cells
  cellular AMP:ATP and ADP:ATP ratios: increased cellular AMP:ATP and ADP:ATP ratios to a similar or even greater extent than phenformin
